Molecular target: T1, Chemerin-like receptor 1 (Homo sapiens, UniProt Q99788)
T1 sequence (Q99788 whole entry): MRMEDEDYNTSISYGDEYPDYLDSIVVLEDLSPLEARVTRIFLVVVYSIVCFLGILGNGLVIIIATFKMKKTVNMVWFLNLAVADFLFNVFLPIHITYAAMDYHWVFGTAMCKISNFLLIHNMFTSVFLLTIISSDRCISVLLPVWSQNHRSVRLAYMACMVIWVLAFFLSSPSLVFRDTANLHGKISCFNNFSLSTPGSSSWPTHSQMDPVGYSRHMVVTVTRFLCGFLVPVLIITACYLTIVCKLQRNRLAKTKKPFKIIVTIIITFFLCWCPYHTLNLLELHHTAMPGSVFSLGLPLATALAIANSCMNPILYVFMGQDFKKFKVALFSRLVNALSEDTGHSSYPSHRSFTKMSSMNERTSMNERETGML
Assay: Displacement of [125I]-chemerin from ChemR23 (unknown origin) transfected in mouse BaF3 cells after 3 hrs by scintillation counting method
Assay type: cell-based

Compound | IC50
C=C(C)CC1(C(=O)Nc2cc(C(F)(F)F)cc(C(F)(F)F)c2)CC(=O)N(c2c(C)cccc2C)C1 (configuration not stated) | ≤ 30 nM
Cc1cccc(C)c1N1CC(Cc2ncc[nH]2)(C(=O)Nc2cc(C(F)(F)F)cc(C(F)(F)F)c2)CC1=O (configuration not stated) | 30 to 300 nM
Cc1cccc(Br)c1N1CC(C(=O)Nc2cc(C(F)(F)F)cc(C(F)(F)F)c2)(C(C)C)CC1=O (configuration not stated) | ≤ 30 nM
C=CCc1cccc(C)c1N1CC(C(=O)Nc2cc(C(F)(F)F)cc(C(F)(F)F)c2)(C(C)C)CC1=O (configuration not stated) | ≤ 30 nM
Cc1cccc(C)c1N1CC(CN2CCCC2)(C(=O)Nc2cc(C(F)(F)F)cc(C(F)(F)F)c2)CC1=O (configuration not stated) | 300 to 6000 nM
Cc1cccc(CN2CCOCC2)c1N1CC(C(=O)Nc2cc(C(F)(F)F)cc(C(F)(F)F)c2)(C(C)C)CC1=O (configuration not stated) | 30 to 300 nM
CC[C@@]1(C(=O)Nc2cc(CN3CCOCC3)cc(C(F)(F)F)c2)CN(c2c(C)cccc2C)C(=O)[C@H]1C | 300 to 6000 nM
CC(C)C1(C(=O)Nc2cc(C(F)(F)F)cc(C(F)(F)F)c2)CC(=O)N(c2ccccc2CN2CCOCC2)C1 (configuration not stated) | 300 to 6000 nM
Cc1cccc(CCN2CCCC2)c1N1CC(C(=O)Nc2cc(C(F)(F)F)cc(C(F)(F)F)c2)(C(C)C)CC1=O (configuration not stated) | 300 to 6000 nM
Cc1cccc(C)c1N1C[C@@](CN2CCCCC2)(C(=O)Nc2cc(C(F)(F)F)cc(C(F)(F)F)c2)[C@H](C)C1=O | 300 to 6000 nM
CC[C@@]1(C(=O)Nc2cc(CN3CCCC3)cc(C(F)(F)F)c2)CN(c2c(C)cccc2C)C(=O)[C@H]1C | 300 to 6000 nM
COCCOc1cc(NC(=O)C2(C(C)C)CC(=O)N(c3c(C)cccc3Br)C2)cc(C(F)(F)F)c1 (configuration not stated) | 300 to 6000 nM
COc1cccc(C)c1N1CC(C(=O)Nc2cc(C(F)(F)F)cc(C(F)(F)F)c2)(C(C)C)CC1=O (configuration not stated) | 300 to 6000 nM
CC(C)C1(C(=O)Nc2cc(C(F)(F)F)cc(C(F)(F)F)c2)CC(=O)N(c2ccccc2CO)C1 (configuration not stated) | 300 to 6000 nM
COCc1cccc(C)c1N1C[C@](C(=O)Nc2cc(C(F)(F)F)cc(C(F)(F)F)c2)(C(C)C)CC1=O | 30 to 300 nM
Cc1cccc(C)c1N1C[C@](C(=O)Nc2cc(C3CC3)cc(C(F)(F)F)c2)(C(C)C)CC1=O | ≤ 30 nM

Compound | IC50
C=Cc1ccccc1N1CC(C(=O)Nc2cc(C(F)(F)F)cc(C(F)(F)F)c2)(C(C)C)CC1=O (configuration not stated) | 30 to 300 nM
Cc1cccc(C)c1N1CC(CN(C)C)(C(=O)Nc2cc(C(F)(F)F)cc(C(F)(F)F)c2)CC1=O (configuration not stated) | 30 to 300 nM
Cc1cccc(C)c1N1C[C@@](CN(C)C)(C(=O)Nc2cc(C(F)(F)F)cc(C(F)(F)F)c2)[C@H](C)C1=O | ≤ 30 nM
Cc1cccc(C)c1N1C[C@@](CN2CCCC2)(C(=O)Nc2cc(C(F)(F)F)cc(C(F)(F)F)c2)[C@H](C)C1=O | 300 to 6000 nM
Cc1cccc(F)c1N1CC(C(=O)Nc2cc(C(F)(F)F)cc(C(F)(F)F)c2)(C(C)C)CC1=O (configuration not stated) | 30 to 300 nM
C/C=C/c1ccccc1N1CC(C(=O)Nc2cc(C(F)(F)F)cc(C(F)(F)F)c2)(C(C)C)CC1=O (configuration not stated) | 30 to 300 nM
CCN(CC)C[C@@]1(C(=O)Nc2cc(C(F)(F)F)cc(C(F)(F)F)c2)CN(c2c(C)cccc2C)C(=O)[C@H]1C | 300 to 6000 nM
Cc1cccc(C)c1N1CC(C(=O)Nc2cc(C(F)(F)F)cc(C(F)(F)F)c2)(C2CCNC2)CC1=O (configuration not stated) | 300 to 6000 nM
CCOCc1cccc(C)c1N1CC(C(=O)Nc2cc(C(F)(F)F)cc(C(F)(F)F)c2)(C(C)C)CC1=O (configuration not stated) | 300 to 6000 nM
Cc1cccc(C)c1N1C[C@@](CN2CCOCC2)(C(=O)Nc2cc(C(F)(F)F)cc(C(F)(F)F)c2)[C@H](C)C1=O | 300 to 6000 nM
Cc1cccc(CO)c1N1CC(C(=O)Nc2cc(C(F)(F)F)cc(C(F)(F)F)c2)(C(C)C)CC1=O (configuration not stated) | 30 to 300 nM
Cc1cccc(CCN2CCOCC2)c1N1CC(C(=O)Nc2cc(C(F)(F)F)cc(C(F)(F)F)c2)(C(C)C)CC1=O (configuration not stated) | 300 to 6000 nM
Cc1cccc(CCO)c1N1CC(C(=O)Nc2cc(C(F)(F)F)cc(C(F)(F)F)c2)(C(C)C)CC1=O (configuration not stated) | 300 to 6000 nM
Cc1cccc(C)c1N1C[C@](C(=O)Nc2cc(C#N)cc(C(F)(F)F)c2)(C(C)C)CC1=O | ≤ 30 nM
CC[C@@]1(C(=O)Nc2cc(CN3CCCC3C(F)(F)F)cc(C(F)(F)F)c2)CN(c2c(C)cccc2C)C(=O)[C@H]1C (some centres not stated) | ≤ 30 nM
C=CCc1ccccc1N1CC(C(=O)Nc2cc(C(F)(F)F)cc(C(F)(F)F)c2)(C(C)C)CC1=O (configuration not stated) | 30 to 300 nM

— ChEMBL document CHEMBL3879908, “Pyrrolidinone carboxamide derivatives” (2014)
